This is an account of results in patent EP4014964A1, “TOPICAL FORMULATION” (Almirall S.A., priority 2020, dated 2022).

pIC50: −log10 of the molar value.

This experiment concerns immortalized human sebocyte cell line, SZ95. Nature of the experiment: In vitro assay of inhibition of Lipid Synthesis. The experiment is classed as cell-based. Conditions: SZ95 cells, lipid synthesis induced by 75µM AA, 48h, neutral lipids measured with AdipoRed fluorescence. Here is the method:
To evaluate the inhibition of lipid synthesis, the immortalized human sebocyte cell line, SZ95 (stablished by Zouboulis, C.C. et al J Invest Dermatol 1999; 113: 1011-20), was treated with arachidonic acid (AA) in presence or absence of compound. Lipids were detected by using a lipid sensing fluorophore.
10k cells were plated in 384 well microtiter plates and incubated at 37 °C and 5% CO2 in DMEM/F12 supplemented with 10% FBS, 1.25ng/ml of rhEGF and GA-1000, using the MicroClime Lids from Labcyte to reduce the edge effect, before of compound and stimulus addition.
After 24h, compounds were dissolved in DMSO 100%. Then the stocks were serial diluted 1/3 in DMSO 100%, and this battery of solutions were diluted 1/10 in culture medium. Later, compounds dissolved in culture media were added over cells, diluting the solutions prepared 1/40 in the final volume of the assay. Then, cells and compounds were preincubated for 30 min at 37 °C and 5% CO2. After this prior incubation, the lipid synthesis was induced by 75µM of AA final solution, preparing a solution 10x in culture media containing a 1.25% of DMSO. Finally, SZ95 treated were incubated for 48h at 37°C and 5% CO2.
Neutral lipids were measured using AdipoRedTM, purchased from Lonza. To do that, cells were washed with PBS and incubated with a solution of AdipoRedTM (final dilution 1/80 in PBS) for 30 min at room temperature. After the staining process, the fluorescence intensity (FI) was quantified using a fluorescence plate reader (excitation 485 nm; emission 535).
Activity of compounds was calculated as % of inhibition considering the maximal fluorescence for AA-stimulated cells and the minimum fluorescence for unstimulated cells as controls.

For `CCCCCCCc1ccc(-c2c[nH]c(C(=O)O)c2F)c(Cl)c1` [Example 1, 4-(2-Chloro-4-heptylphenyl)-3-fluoro-1H-pyrrole-2-carboxylic acid], the pIC50 (usually −log10 of the IC50, conventionally taken in molar units) (Homo sapiens) is above 6.70.

As to `CCCCCCCc1ccc(-c2c[nH]c(C(=O)O)c2F)c(CC)c1` [Example 2, 4-(2-Ethyl-4-heptylphenyl)-3-fluoro-1H-pyrrole-2-carboxylic acid], the pIC50 (Homo sapiens) is above 6.70.

For the setting “Homo sapiens”, `CCCCCCCCCCCCCc1c[nH]c(C(=O)O)c1F` [Example 3, 3-Fluoro-4-tridecyl-1H-pyrrole-2-carboxylic acid] had a pIC50 above 7.30.

The compound `CCCCCCCCC1CCC(c2c[nH]c(C(=O)O)c2F)CC1` (stereo not shown) [Example 4, 3-Fluoro-4-((1r,4s)-4-octylcyclohexyl)-1H-pyrrole-2-carboxylic acid] showed a pIC50 above 6.70.
